According to US11479565B2, “Process for preparing substituted imidazole derivatives” (BAYER AKTIENGESELLSCHAFT, priority 2018, dated 2022):

Key:
[1] = log P[a] by HPLC on reversed-phase column (C18), LC-UV in the acidic range; type: physicochemical; conditions: 0.9 ml/l formic acid in water and 1.0 ml/l formic acid in acetonitrile, gradient 10% to 95% acetonitrile, EEC Directive 79/831 Annex V.A8
Method: (§1) The log values were determined according to EEC Directive 79/831 Annex V.A8 by HPLC (high-performance liquid chromatography) on a reversed-phase column (C18) using the following methods: The log P[a] value is determined by LC-UV measurement in the acidic range using 0.9 mill formic acid in water and 1.0 ml/l formic acid in acetonitrile as mobile phases (linear gradient from 10% acetonitrile to 95% acetonitrile). Calibration was carried out using a homologous series of straight-chain alkan-2-ones (having 3 to 16 carbon atoms) with known log values. The values between successive alkanones are determined by linear regression.

[2] = log P[n] by HPLC on reversed-phase column (C18), LC-UV in the neutral range; type: physicochemical; conditions: 79 mg/l ammonium carbonate in water and acetonitrile, gradient 10% to 95% acetonitrile, EEC Directive 79/831 Annex V.A8
Method: as §1, with “P[n]” for “P[a]”, “neutral” for “acidic”, “79 mg/l ammonium carbonate” for “0.9 mill formic acid”, “and” for “and 1.0 ml/l formic acid in”

Row | SMILES | chromatographic logP [1] | chromatographic logP [2]
1 | CCS(=O)(=O)c1c(-c2nc3cc(C(F)(F)C(F)(F)F)nnc3n2C)nc(Br)n1C [Example 3, 6-[2-bromo-5-(ethylsulfonyl)-1-methyl-1H-imidazol-4-yl]-7-methyl-3-(pentafluoroethyl)-7H-imidazo[4,5-c]pyridazine] | 2.8 | 2.76
2 | CCSc1c(-c2nc3cc(C(F)(F)C(F)(F)F)nnc3n2C)nc(-c2ccc(Cl)nn2)n1C [Example 5, 6-[2-(6-chloropyridazin-3-yl)-5-(ethylsulfanyl)-1-methyl-1H-imidazol-4-yl]-7-methyl-3-(pentafluoroethyl)-7H-imidazo[4,5-c]pyridazine] | 4.13 | 4.01
3 | CCSc1c(-c2nc3cc(C(F)(F)C(F)(F)F)nnc3n2C)nc(-c2ccc(C#N)cn2)n1C [Example 6, 6-{5-(ethylsulfanyl)-1-methyl-4-[7-methyl-3-(pentafluoroethyl)-7H-imidazo[4,5-c]pyridazin-6-yl]-1H-imidazol-2-yl}nicotinonitrile] | 4.32 | 4.2

More lines, now with the values ahead:

Row | chromatographic logP [1] | chromatographic logP [2] | SMILES
4 | 3.14 | 3.01 | CCSc1c(-c2nc3cc(C(F)(F)F)nnc3n2C)nc(Br)n1C [Example 1, 6-[2-bromo-5-(ethylsulfanyl)-1-methyl-1H-imidazol-4-yl]-7-methyl-3-(trifluoromethyl)-7H-imidazo[4,5-]pyridazine]
5 | 3.8 | 3.66 | CCSc1c(-c2nc3cc(C(F)(F)C(F)(F)F)nnc3n2C)nc(Br)n1C [Example 2, 6-[2-bromo-5-(ethylsulfanyl)-1-methyl-1H-imidazol-4-yl]-7-methyl-3-(pentafluoroethyl)-7H-imidazo[4,5-c]pyridazine]
6 | 3.63 | 3.51 | CCSc1c(-c2nc3cc(C(F)(F)C(F)(F)F)ncc3n2C)nc(Br)n1C [Example 4, 2-[2-bromo-5-(ethylsulfanyl)-1-methyl-1H-imidazol-4-yl]-3-methyl-6-(pentafluoroethyl)-3H-imidazo[4,5-c]pyridine]
